Source: PubChem BioAssay AID540268 (Broad Institute, 2011)

Experiment: reduced viability of parasite-Hsp90 expressing yeast – ATP luminescence, 48 h, cherry-picked samples, anti-malarial Hsp90 inhibitor project, dose response (AID 540268)
Conditions: yeast expressing the parasite Hsp90, ATP luminescence

Row | SMILES | AC50 [µM]
1 | COc1ccc(OC)c(NC(=O)Nc2ccc(O)c3ccccc23)c1 | < 0.195
2 | CCOC(=O)c1ccc(N2C(=O)CC(N(C)CCc3ccc(OC)c(OC)c3)C2=O)cc1 (stereo unspecified) | 3.14
3 | CC(=O)N1CCN(c2ccc(OC[C@H]3CO[C@](Cn4ccnc4)(c4ccc(Cl)cc4Cl)O3)cc2)CC1 | 1.29
4 | O=C(OCC(=O)N1CCN(C(=O)c2ccco2)CC1)c1cc(-c2ccccc2)nc2ccccc12 | 3.6
5 | O=c1[nH]c(-c2ccccn2)nc(C(F)(F)F)c1Br | 4
6 | Nc1nonc1C(=O)NCCN=Cc1cc(Cc2ccccc2)cc(Br)c1O | 2.3
7 | Oc1c(C(c2ccccc2Cl)N2CCCC2)ccc2cccnc12 (stereo unspecified) | 3.51
8 | OC(Cn1cncn1)(c1ccc(F)cc1)c1ccc(Cl)cc1 (stereo unspecified) | < 0.195
9 | CC(=NNC(=S)N1CCCCCC1)c1ccccn1 | 3.89
10 | CC(C)(C)c1ccc(NC(=O)COC(=O)c2ccc([N+](=O)[O-])s2)cc1 | 3.88
11 | CC(=O)N(C(C)=O)N1C(=O)/C(=C/c2ccc(Cl)cc2)SC1=S | 3.28
12 | Cc1nn(-c2nc3ccccc3[nH]2)c(=O)c2ccccc12 | 1.84
13 | CC1=C/C(=N\OS(=O)(=O)c2ccccc2)C(C(C)C)=CC1=O | 0.827
14 | CCOc1ccc(N2C(=O)/C(=C\c3ccccc3OC)S(=O)(=O)C2c2cccc([N+](=O)[O-])c2)cc1 (stereo unspecified) | 21.6
15 | COc1ccc(NC(=O)c2cc([N+](=O)[O-])ccc2O)cc1 | 5.24
16 | CCN(CC)C1CC(=O)N(c2ccc(Br)cc2)C1=O (stereo unspecified) | 2.97
17 | CCc1ccc(OCC(=O)NNC(=S)NC(=O)C2CC2)c(Br)c1 | 1.12
18 | COc1ccccc1C(=O)Nc1nc2ccccc2[nH]1 | 1.22
19 | CCn1c(CNc2ccc(Cl)cc2)nnc1SCc1ccc(C)cc1 | 8.23

Row | SMILES | AC50 [µM]
20 | COC(=O)C1CCN(C2CC(=O)N(c3cc(C)cc(C)c3)C2=O)CC1 (stereo unspecified) | 7.68
21 | CCOC(=O)C1=Nc2ccccc2C1=[N+]=[N-] | 0.532
22 | CC(=NNC(=S)N1CCN(C2CCCCCC2)CC1)c1ccccn1 | 3.95
23 | CC1=C(O)C(=O)C=C2C1=CC=C1C2(C)CCC2(C)C3CC(C)(C(=O)O)CCC3(C)CCC12C (stereo unspecified) | 1.48
24 | COc1ccc(-c2sc3ccccc3c2/C=C/c2ccncc2)cc1 | 4.84
25 | O=S1(=O)C=C(Sc2nnc(-c3ccccc3)o2)c2ccccc21 | 3.57
26 | COc1ccc(C(=O)/C=C2\C(=O)Nc3ccc(Br)cc32)cc1 | 2.22
27 | CCCCCCOC(=O)Sc1nc2ccccc2o1 | 1.57
28 | COc1ccc2c(c1)[C@H]1[C@H](CO2)[C@H](c2ccccc2)[C@]2(C)C(=O)Nc3ccc(Br)cc3C(=O)N12 | 1.74
29 | Cc1cc2c(cc1C)CSC(c1c(O)ccc3ccccc13)SC2 | 4.26
30 | Oc1ccc(/C=N/N(Cc2ccccc2)c2ccccc2)cc1 | 8.09
31 | COc1ccccc1-c1sc2ccccc2c1-c1ccc(O)cc1 | 3.78
32 | CCOC(=O)N=Nc1c2ccccc2c2nc3no[nH]c3nc12 | 0.769
33 | CCN1C/C(=C\c2cccc([N+](=O)[O-])c2)C(=O)/C(=C/c2cccc([N+](=O)[O-])c2)C1 | 5.63
34 | C/C(=N\Nc1ncc(Cl)cc1Cl)c1ccccn1 | 1.8
35 | O=C(C#Cc1ccccc1)c1cccc([N+](=O)[O-])c1 | 0.291
36 | O=C(c1ccccc1)c1cc(Cl)ccc1N1C(=O)C=CC1=O | 0.432
37 | CSc1ccccc1OCc1cc(C(=O)N2CCN(C)C(c3ccccc3)C2)no1 (stereo unspecified) | 2.25
38 | O=c1oc(-c2ccccc2)cc(Cl)c1Cl | 3.77

Row | SMILES | AC50 [µM]
39 | CCCCCCCCCCOC(=O)Cn1c(COc2ccc(C)cc2)[n+](C)c2ccccc21 | 25.8
40 | COC(=O)c1cc(=O)n(-c2ccc(F)cc2)c(=Nc2ccc(F)cc2)s1 | 13.9
41 | COc1ccc2c(c1)OC[C@H]1[C@H]2N2C(=O)c3cc(C)ccc3NC(=O)[C@@]2(C)[C@H]1c1ccccc1 | 0.988
42 | OC(CNCCC1C=Nc2ccccc21)Cn1c2ccc(Cl)cc2c2cc(Cl)ccc21 (stereo unspecified) | 7.56
43 | Oc1cc(OCc2ccccc2)ccc1-c1[nH]ncc1-c1ccccc1 | 9.04
44 | O=C1[C@@H]2C(c3cccnc3)=NO[C@@H]2C(=O)N1c1ccc(Br)cc1 | 3.1
45 | COc1ccc2c(c1)OC[C@H]1[C@H]2N2C(=O)c3cc(Br)ccc3NC(=O)[C@@]2(C)[C@H]1c1ccccc1 | 0.658
46 | CCCCCCCCCCCCCCCC[N+](C)(C)CCN(Cc1ccc(OC)cc1)c1ncccn1 | 4.14
47 | O=C1/C(=C\c2ccc([N+](=O)[O-])cc2)CS(=O)(=O)C/C1=C/c1ccc([N+](=O)[O-])cc1 | 0.337
48 | COc1cc(C=NO)nc(-c2ccccn2)c1 | 2.32
49 | O=C1C=CC(=O)N1CCNc1ncc(C(F)(F)F)cc1Cl | 0.674
50 | Oc1c(Cl)cc(Cl)c(Cl)c1Cc1c(O)c(Cl)cc(Cl)c1Cl | 0.676
51 | O=C1CCCN1CCC1CCN(C2CC(=O)N(c3ccc(Cl)cc3)C2=O)CC1 (stereo unspecified) | 4.79
52 | CCOC(=O)c1ccc(N2C(=O)CC(N3CCC(Nc4ccc(F)cc4)CC3)C2=O)cc1 (stereo unspecified) | 4.58
53 | Cc1cccc(Nc2nc(N)c([N+](=O)[O-])c(N3CCCC(C)C3)n2)c1 (stereo unspecified) | 2.03
54 | Cc1ccc(-n2nnnc2C(Cl)c2nnnn2-c2ccc(C)cc2)cc1 | 0.903
55 | COc1ccccc1N=Nc1ccc(O)c2ncccc12 | 4.31
56 | CCc1ccccc1NC(=O)c1cccc(Oc2ccc([N+](=O)[O-])cc2Cl)c1 | 4.12
